The target of one series is T1, murine IDO1 (Mus musculus, UniProt P28776).
T1 construct: expressed in transfected cells; host or cells: murine LLTC Lewis lung carcinoma cells
The series is described as follows: LLTC-mIDO1 cell-based assay (kynurenine in supernatant). From the text:
(§1) Transfected LLTC cells constitutively expressing human IDO1 (LLTC-hIDO1) were established as previously described, by transfecting wild-type LLTC cells with pAd/CMV/V5-DEST with cDNA for human IDO1 (Invitrogen, Carlsbad, CA, USA). LLTC-mIDO1 cells that constitutive express murine IDO1 were established by transfection of wild-type LLTC with cDNA for murine IDO1 (courtesy of Dr Benoit van den Eynde). GL261 cells were similarly transfected to produce a line constitutively expressing human IDO1 (GL261-hIDO1), and a GL261-hTDO2 line expressing the human TDO2 gene (Source BioScience, Nottingham, England). Stable transfectants were maintained in αMEM with 10% FCS and selection antibiotics (2 µM puromycin for lines transfected with human dioxygenase genes, or 5 µg/mL blastocidin for LLTC-mIDO1 cells).
(§2) For the cell-based assays with engineered TDO2-expressing lines (10^4 cells per well), the α-MEM culture media was additionally supplemented with […] L-tryptophan. In brief, cells were cultured 24 h with the test compounds, and then supernatants from each well were transferred into fresh, flat-bottomed 96-well plates, mixed with trichloroacetic acid (10% final concentration) and incubated for 20 min, at 60 °C. Plates were centrifuged and supernatants transferred and mixed 1:1 with 4-(dimethylamino)benzaldehyde and the absorbance read at 480 nm as previously described. The inhibition of cellular enzyme activity at each drug concentration was calculated as a percent of control wells with no added drug.

Another series concerns the target T2, human TDO2 (Homo sapiens, UniProt P48775).
T2 construct: host or cells: murine GL261 glioma cells
The series is described as follows: GL261-hTDO2 cell-based assay (kynurenine in supernatant). The settings on record: Table 2; for IC50 Ratio hTDO2/hIDO1: GL261-hTDO2 IC50 / LLTC-hIDO1 IC50, ^−1 marks inverse ratio; for IC50: GL261-hTDO2 cells. How it is done: Each compound was tested in cell-based assays using LLTC-hIDO1 and GL261-hTDO2, respectively, for their potency at inhibiting human IDO1 and human TDO2.
as §1, §2

Series [1] addresses T3, human IDO1 (Homo sapiens, UniProt P14902). Put plainly: cell-free recombinant hIDO1 enzymatic assay. Type of series: biochemical. The note with it: Figure 4, read-out: IC50 (enzyme assay).
Series [2] relates to GL261-hIDO1 tumours. Put plainly: K:T ratios in plasma and tumour of mice with GL261-hIDO1 tumours after single ip dose. The note with it: single ip 150 mg/kg. The format is in vivo, C57Bl/6 mice. The procedure:
C57Bl/6 mice were inoculated subcutaneously with 10^6 GL261-WT or GL261-hIDO1 cells in […] PBS into the left flank. […] In brief, 100µL of each plasma sample was mixed with 100µL of potassium phosphate buffer (0.05 M, pH 6) containing 100µM of the internal standard, 3-Nitro-L-Tyrosine (Sigma-Aldred, St Louis, MO, USA). Twenty-five µL of 2 mol/L trichloroacetic acid (Merck) was added to precipitate the proteins, and the samples were then vortexed and centrifuged at 12,000× g for 6 min, at room temperature. Standard calibration curves made from serial dilution of tryptophan (Sigma) and L-kynurenine (Sigma) were prepared with the same treatment as the samples. All supernatants collected after centrifugation were transferred into micro sampling vials and analysed for kynurenine and tryptophan as previously described by HPLC (HP Agilent 1200, Agilent Technologies, Walbronn, Germany). Kynurenine and tryptophan concentrations in samples were calculated from the standard calibration curves and the kynurenine to tryptophan ratio (K:T) was calculated by dividing the concentration of kynurenine by the tryptophan concentration.

For series [3], the system named is GL261-hIDO1 tumours. Put plainly: Growth of subcutaneous GL261-hIDO1 tumours under daily ip treatment. Type of series: in vivo. The note with it: daily ip 75, 100 and 150 mg/kg, C57Bl/6 mice.
Procedure: C57Bl/6 mice bred at the Vernon Jansen Unit, University of Auckland were used as the hosts for the growth of GL261 and LLTC tumours. Unless stated, first-generation tumours, initiated by injecting 10^6 cells in 100 µL medium subcutaneously into the left flank of each mouse were used for experiments. […] Tumours were measured thrice weekly, and tumour volumes were calculated as 0.52a^2b, where a and b are the minor and major axes of the tumour.
C57Bl/6 mice were inoculated subcutaneously into the left flank with 10^6 GL261-hIDO1 cells and were randomised into treatment groups 6 days after inoculation when the tumours were approximately 3 × 3 mm in size. Mice with tumours were treated daily with ip injection of the inhibitor at a tolerated non-toxic dose, dissolved to the required concentration in 50 µL DMSO per mouse. Control groups received only DMSO (≤50 µL).
A short description of the next series: in vivo. The note with it: C57Bl/6, mouse, ip.
In series [4] the target is T3, human IDO1. The series is described as follows: LLTC-hIDO1 cell-based assay (kynurenine in supernatant). Also on record: host or cells: murine LLTC Lewis lung carcinoma cells.
From the text: as §1, §2

Setting [5] is: Table 1, LLTC-mIDO1 cells, 24 h culture with compound, read-out: IC50 (µM) LLTC-mIDO1.
The mark [6] stands for this setting: mice with 16-day GL261-hIDO1 tumours.
Setting [7] is: LLTC-hIDO1 cell assay vs recombinant hIDO1 enzymatic assay.
Setting [8] is: Table 1, LLTC-hIDO1 cells, 24 h culture with compound, read-out: IC50 (µM) LLTC-hIDO1.
Setting [9] is: Table 2, LLTC-hIDO1 cells, read-out: IC50 (µM) LLTC-hIDO1.

Where two headings read alike, the source gives them in different places.

As usually defined, the IC50 is the concentration needed to halve the response being measured.

T3 sequence (P14902 whole entry): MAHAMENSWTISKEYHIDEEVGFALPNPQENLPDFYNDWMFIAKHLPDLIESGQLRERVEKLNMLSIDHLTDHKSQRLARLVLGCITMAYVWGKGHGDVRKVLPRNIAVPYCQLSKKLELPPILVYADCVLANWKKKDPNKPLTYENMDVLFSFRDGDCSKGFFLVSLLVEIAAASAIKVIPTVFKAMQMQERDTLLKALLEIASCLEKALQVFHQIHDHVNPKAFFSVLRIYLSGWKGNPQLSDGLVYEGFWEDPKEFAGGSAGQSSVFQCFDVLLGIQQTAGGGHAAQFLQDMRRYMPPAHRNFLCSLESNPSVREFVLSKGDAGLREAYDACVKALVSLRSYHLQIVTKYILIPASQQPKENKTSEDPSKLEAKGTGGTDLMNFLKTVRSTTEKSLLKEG
T1 sequence (P28776 whole entry): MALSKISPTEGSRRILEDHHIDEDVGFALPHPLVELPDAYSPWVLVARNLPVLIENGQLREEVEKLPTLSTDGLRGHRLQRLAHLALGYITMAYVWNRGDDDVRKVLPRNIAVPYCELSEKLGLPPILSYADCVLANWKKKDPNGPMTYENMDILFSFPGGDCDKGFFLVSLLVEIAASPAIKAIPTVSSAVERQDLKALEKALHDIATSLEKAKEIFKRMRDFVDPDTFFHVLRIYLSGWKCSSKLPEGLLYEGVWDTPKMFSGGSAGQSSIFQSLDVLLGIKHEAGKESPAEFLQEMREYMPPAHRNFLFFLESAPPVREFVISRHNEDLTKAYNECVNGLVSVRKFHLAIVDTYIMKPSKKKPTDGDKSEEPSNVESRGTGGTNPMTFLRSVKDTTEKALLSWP
T2 sequence (P48775 whole entry): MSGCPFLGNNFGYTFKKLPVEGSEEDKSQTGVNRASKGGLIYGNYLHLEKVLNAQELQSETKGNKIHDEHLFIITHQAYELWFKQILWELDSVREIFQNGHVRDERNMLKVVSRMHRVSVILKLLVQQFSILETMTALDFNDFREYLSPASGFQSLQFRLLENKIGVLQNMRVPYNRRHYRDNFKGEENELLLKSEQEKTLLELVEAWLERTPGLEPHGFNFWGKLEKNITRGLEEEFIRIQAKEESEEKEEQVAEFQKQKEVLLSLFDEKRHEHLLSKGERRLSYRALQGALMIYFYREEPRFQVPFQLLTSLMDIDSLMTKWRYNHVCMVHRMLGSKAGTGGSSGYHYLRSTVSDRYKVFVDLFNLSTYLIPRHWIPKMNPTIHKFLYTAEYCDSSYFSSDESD

For the molecule `Cc1nc2onc(N)c2c(C)c1Cl` [Compound W-0019482], the IC50 on murine IDO1 (setting [5]) stood at 0.01 µM; at human TDO2 it was 15.2 µM; on human IDO1 [1], 1.85 µM; at human IDO1 [4] (Figure 4, LLTC-hIDO1 cell-based assay, read-out: IC50 (cell assay)) it was 0.0661 µM; at human IDO1 [4] (setting [8]), 0.08 µM; on human IDO1 [4] (setting [9]), 0.09 µM. Also, at human TDO2, the “IC50 Ratio hTDO2/hIDO1” value was determined as 169. In the series on GL261-hIDO1 tumours [2] (GL261-hIDO1 tumours, time point not given), the “K:T ratio in the tumour, returned to % of that in mice without treatment” value is given as “approximately 50%”. For the same molecule, in the series on GL261-hIDO1 tumours [2] (setting [6]), the “K:T ratio in plasma” value is “reduced within an hour”. Further, the “K:T ratio in tumour” value in the series with GL261-hIDO1 tumours [2] (setting [6]) is reported as “reduced within an hour”. Further, in the series with GL261-hIDO1 tumours [3], the “growth of subcutaneous GL261-hIDO1 tumours” value is reported as “delayed the growth”. The molecule also gave an MTD in “in vivo” of 150 mg/kg. Besides, at human IDO1 [4] (setting [7]), the “fold more potent in the cell-based assay compared to activity against the enzyme” value amounted to 30 fold.
Regarding `Fc1ccc(N/N=C2/CCCc3ccccc32)c(F)c1` [Compound W-0125931], the IC50 at murine IDO1 (setting [5]) came out at 5.83 µM; at human IDO1 [4] (setting [8]), 6.04 µM.
As for `Nc1noc2ncc(Cl)cc12` [SN36499], the IC50 against human TDO2 was 0.11 µM; on human IDO1 [4] (setting [9]), 0.7 µM.
As for `CC1=C/C(=N\Nc2ccccc2Cl)CC1` [Compound W-0079433], the IC50 was found to be 13.3 µM at murine IDO1 (setting [5]) and 5.33 µM at human IDO1 [4] (setting [8]).
For `Cc1ccc(C)c(C2=Nn3c(COc4ccccc4F)nnc3SC2C)c1` (stereo not drawn) [Compound W-0080549], the IC50 on murine IDO1 (setting [5]) is 70.7 µM; at human IDO1 [4] (setting [8]) it was 31.6 µM.
Consider `Fc1ccc(N/N=C/c2sc(N3CCOCC3)nc2-c2ccccc2)cc1` [Compound W-0079497], for which the IC50 on murine IDO1 (setting [5]) came to 3.03 µM; on human IDO1 [4] (setting [8]), 3.45 µM.
The matching figures for `O=C(O)c1coc2c1C(=NNc1ccccc1)CCC2` [Compound W-0011387]: 1.32 µM and 3.19 µM.
For `C/C(=N\Nc1ccc(C)c(Cl)c1)c1ccncc1` [Compound W-0079341] the same measures were 10.3 µM and 17.1 µM.
`N#Cc1c(NC(=O)c2ccccc2)sc(N)c1-c1cccs1` [Compound W-0003891]: the results for the IC50 on murine IDO1 (setting [5]) and at human IDO1 [4] (setting [8]) were 22.5 µM and 2.56 µM, respectively.
The matching figures for `NC(=O)SCC(=O)Nc1ccc(F)cc1` [Compound W-0013201]: 20 µM and 20.1 µM.
For `C/C(=N\Nc1ccc(F)cc1F)c1cc2ccccc2o1` [Compound W-0079399] the same measures were 25 µM and 41.2 µM.
Turning to `Nc1noc2ncc(I)cc12` [SN36896], the results for the IC50 on human TDO2 and on human IDO1 [4] (setting [9]) were 0.11 µM and 0.64 µM, respectively.
For `CCn1cc(-c2c(N)sc(NC(=O)c3ccccc3)c2C#N)c(C)n1` [Compound W-0020339], the half-inhibitory concentration (IC50) is 50.5 µM on murine IDO1 (setting [5]) and 11.6 µM at human IDO1 [4] (setting [8]).
Regarding `Nc1noc2nc(C(F)(F)F)ccc12` [SN37159], the “IC50 Ratio hTDO2/hIDO1” value on human TDO2 came to 1.6. For the same molecule, the IC50 stood at 1.81 µM at human TDO2 and 1.14 µM at human IDO1 [4] (setting [9]).
Turning to `Nc1noc2ncc([N+](=O)[O-])cc12` [SN37318], the IC50 against human TDO2 was 0.68 µM; on human IDO1 [4] (setting [9]), 0.92 µM.
Take `Nc1noc2nc3ccccc3cc12` [SN36500]: the IC50 against human TDO2 was 1.58 µM; on human IDO1 [4] (setting [9]), 2.11 µM.
Regarding `Nc1noc2ncc(Br)cc12` [SN36458], the half-maximal inhibitory concentration (IC50) on human TDO2 was 0.08 µM; on human IDO1 [4] (setting [9]) it was 0.66 µM.
For `Nc1noc2ncncc12` [SN36704] the same measures were 1.07 µM and 8.67 µM.
Take `Nc1nonc1/C(=N\O)Nc1ccc(F)c(Cl)c1` [INCB14934, reference compound]: the IC50 was determined as 0.12 µM at murine IDO1 and 6.08 µM on human TDO2. In addition, the “titration curve in the cell-assay compared to that in the enzymatic assay” value on human IDO1 [4] (setting [7]) is “very similar”.
For `Cc1nc2onc(N)c2c(C)c1Br` [SN36494], the “IC50 Ratio hTDO2/hIDO1” value at human TDO2 amounted to 47. The IC50 on human TDO2 worked out at 14.1 µM; on human IDO1 [4] (setting [9]), 0.3 µM.
For `Cc1nc2onc(NC(=O)Nc3ccccc3)c2c(C)c1Cl` [SN37705] the same measures were 85, 175 µM and 2.06 µM.
Consider `C/C(=N\Nc1ccc(F)cc1F)c1cccs1` [Compound W-0079326], for which the values for the half-inhibitory concentration (IC50) at murine IDO1 (setting [5]) and at human IDO1 [4] (setting [8]) were 13.1 µM and 10.1 µM, respectively.
Turning to `Cc1ccc(N/N=C2/CCCNC2=O)cc1` [Compound W-0011320], the half-maximal inhibitory concentration (IC50) at murine IDO1 (setting [5]) came to 11.3 µM; at human IDO1 [4] (setting [8]) it was 17.9 µM.
Consider `Cc1cc(Cl)nc2onc(N)c12` [SN37313], for which, on human TDO2, the “IC50 Ratio hTDO2/hIDO1” value turned out to be 67 and half-maximal inhibition (IC50) was put at 4.14 µM. On human IDO1 [4] (setting [9]), the IC50 stood at 0.06 µM.
For `COc1ccc2c(N)noc2n1` [SN37057] the same measures were 1.2, 10.7 µM and 8.88 µM.
In the case of `C/C(=N\Nc1ccc(F)cc1F)c1ccc(N2CCOCC2)cc1` [Compound W-0079400], the figures for the IC50 at murine IDO1 (setting [5]) and on human IDO1 [4] (setting [8]) were 12.9 µM and 20.8 µM, respectively.
Consider `COc1cc(/C(C)=N/Nc2ccc(Cl)c(Cl)c2)cc(OC)c1OC` [Compound W-0079409], for which the results for the IC50 at murine IDO1 (setting [5]) and on human IDO1 [4] (setting [8]) were 16 µM and 6.74 µM, respectively.
For `CC(C)N1CCC(=NNc2ccc(Cl)c(Cl)c2)CC1` [Compound W-0079407] the same measures were 1.87 µM and 3.39 µM.
On to `c1ccc2c(c1)Nc1ccccc1O2` [Compound W-0020227], for which the IC50 against murine IDO1 was found to be 3.1 µM; at human IDO1 [4], 1.52 µM.
For the molecule `Nc1noc2nc(-c3ccccc3)ccc12` [SN36796], at human TDO2, the “IC50 Ratio hTDO2/hIDO1” value came to 8 and the IC50 came out at 37 µM. In addition, the IC50 at human IDO1 [4] (setting [9]) was 4.38 µM.

Source of the values: paper PMC9501369, “Evaluation of Novel Inhibitors of Tryptophan Dioxygenases for Enzyme and Species Selectivity Using Engineered Tumour Cell Lines Expressing Either Murine or Human IDO1 or TDO2” (Pharmaceuticals, 2022).
